Experimental data published in US20190169134A1, “NOVEL CLASS OF QUINOLONE HETEROCYCLIC AROMATIC MOLECULES FOR CANCER TREATMENT” (RenoTarget Therapeutics, Inc., priority 2016, published 2019).

What was measured:
[1] = system: HCC827OR16; assay: Cell growth inhibition by SRB method; assay type: cell-based, human; details: Homo sapiens, AZD9291-resistant line, 72 hrs exposure
Text: (§1) Six human cancer cell lines have been used to evaluate effects of the compounds on proliferation of cancer cells. These cell lines include HCC827-P (or HCC827 parent cells), human non-small lung cancer cells, Parent NSCLC HCC827 cell line (which harbors EGFR gene amplification, Exon 19 (E19) deletion, and Exon 21 mutation (Wang, Ramakrishnan et al. 2010), and is an EGFRi sensitive cell line (Kim, Kim et al. 2010)); HCC827-TR16 (Tarceva-resistant HCC727 cell line), HCC827-OR16 (AZD9291-resistant HCC727 cell line), LNCaP (human prostate cancer cells—a hormonal-therapy sensitive cell line (Wang, Liu et al. 1997)); 22RV1 (human prostate cancer cells—a hormonal-therapy resistant cell line (Sramkoski, Pretlow et al. 1999)); and ACHN (human renal adenocarcinoma cells (Park, Jung et al. 2003)). LNCaP cells and 22RV1 cells were purchased from the American Type Culture Collection (Rockville, Md.) and others were gifts of friends.
(§2) To evaluate activities of new compounds on growth of EGFR-inhibitor-resistant cells, two EGFRi-resistant cell lines, i.e., HCC827-TR16 and HCC827-OR16 were established using a method described by Eberlein et al. (Eberlein, Stetson et al. 2015). […] Resistant cells were collected and stabilized after 5 weeks (cycle 5). […] The resistant cells were sorted using 96-well dishes by culturing cells with density of 0.1, 1, 10, and 100 cells per well.
(§3) All cell lines were maintained in RPMI-1640 (GIBCO, Gaithersburg, Md.) with 10% heat-inactivated bovine serum (FBS) (Wang, Ossowski et al. 2004).
(§4) Sulforhodamine B (SRB) was used to estimate cell growth as described previously (Skehan, Storeng et al. 1990). Briefly, cells grown exponentially were aliquoted into 96-well plates at a density of 2,500 to 5,000 cells/200 μl per well in RPMI 1640 medium containing 10% FBS. After twenty-four hours, the cells were exposed to indicated concentrations of tested compounds for 72 hrs or otherwise as indicated. The cells were then fixed with 10% trichloride acetic acid for 2 h at 4° C. The 10% trichloride acetic acid was removed, and the dishes were washed 5 times with tape water, and air-dried. The fixed and dried cells were then stained with 0.4% SRB in 1% acetic acid for 25 min, and the dishes were washed 5 times with 1% acetic acid and air-dried overnight. 200 μl of 10 mM of Tris buffer (pH 10.0) were added, and the dishes were rotated to completely dissolve the color. Absorbance at 570 nm, with a reference wavelength 690 nm, was measured on a 96-well microplate reader (SPECTRO Star^Nano, BMG Labtech). Mean, standard deviation (SD) and the percent of growth inhibition at each concentration point of the treatment were calculated. The percent of growth inhibition as defined as (1−T/C)×100 where T is the mean of the absorbance at 570 nm from the treatment, and C from control (drug vehicle only). IC50 was calculated using Sigma-plot software by regression of growth-concentration curve from each drug treatment.

[2] = system: HCC827P; assay: Cell growth inhibition by SRB method; assay type: cell-based, human; details: Homo sapiens; 72 hrs exposure, SRB
Text: as §1, §2, §3, §4

[3] = system: HCC827-OR16; assay: qRT-PCR expression of p21; assay type: cell-based, human; details: HCC827-OR16, 24 h, q-RT-PCR
Procedure: FIG. 10 depicts the effect of Reno647 on expressions of Caspase 3, Caspase 9 and p21 in HCC827-P and on Box, Bcl2, p53 and p21 in HCC827-OR16 cells. […] Total cellular RNA was extracted and cDNA was prepared followed by qRT-PCR using specific probes as described in the section of Materials and Methods. Tgene ΔCt value was normalized for GAPDH by calculating ΔCt=Ctgene−CtGAPDH per sample.
HCC827 P or other indicated cells at exponential growth phase were treated with indicated concentrations of compounds for 24 hours. Total cellular RNA was prepared from lysed tumor cells using an RNA Purification kit (ThermoFisher Scientific). The first-strand of cDNA was synthesized using a High Capacity cDNA reverse transcription kit (ThermoFisher Scientific) in PTC-100 Peltier Thermal Cycler PCR. The resultant cDNA (0.5-1 μL) was used in a 10 μl reaction by using Taqman Universal PCR Master Mix (ThermoFisher Scientific). The pre-designed primers and probe were purchased from Life Technologies and used for qPCR. Human GAPDH was used as an internal control. qPCR was performed using Applied Biosystems StepOne and StepOnePlus Real-Time PCR Systems according manufacturer's instructions. An initial PCR denaturation step was performed at 95° C. for 20 seconds. […]

[4] = system: HCC827TR16; assay: Cell growth inhibition by SRB method; assay type: cell-based; details: Homo sapiens, Tarceva-resistant line, 72 hrs exposure
Text: as §1, §2, §3, §4

[5] = system: HCC827 P and HCC827 TR cells; assay: Reno647/Carboplatin combination, median effects (SRB, CalcuSyn); assay type: cell-based, human
Procedure: As described in Example 2.1. Two cell lines, HCC827-P and HCC827-TR (Tarceva-resistant HCC727 cells-an EGFRi resistant cell line with MET amplification) (Wang, Pursell et al. 2013) were used in the combination study. Exponentially growing HC[…] and HCC827-TR cells were seeded into 96-wells dishes at density of 3,000 cells per well. Twenty-four hours later, the cells were exposed concurrently to serial dilution of Reno647 or Carboplatin or Camptothecin alone or in combination at a ratio of 1:50 with Carboplatin or at ratio 1:1 with Camptothecin for 3 days. Reno647 were concurrently and sequentially with paclitaxel (Taxol) at ratio of 200:1 for 6 days. For sequential exposure, the cells were treated with Reno647 for 3 days, after removal of the drug containing medium, the cells were treated with Taxol for additional 3 days, or the cells were treated by Taxol first followed by the treatment with Reno 647. After incubation for 6 days, the cell growth was measured by SRB as described previously in Example 2.1 section, and the percentages of inhibition (1-T/C) % were calculated, and data were analyzed by a PC program, CalcuSyn, Biosoft (edited by T.-C. Chou, Memorial Sloan-Kettering Cancer Center, New York, and M. P. Hayball, at Cambridge, UK, 1996). The computer-calculated combination index (CI) was used to judge the outcomes of a combination: […] It has long been accepted that chemotherapy provided some benefit for patients with non-small-cell lung cancer (NSCLC) in terms of quality of life and symptomatology as well as modest improvements in survival. […] Cell growth was determined by SRB as described above.

[6] = system: 22RV1; assay: Cell growth inhibition by SRB method; assay type: cell-based, human; details: Homo sapiens, 22Rv1, 72 h, 72 hrs exposure, SRB
Text: as §1, §3, §4

- IC50 [1]: 380 nM
- IC50 [2]: 150 nM
- IC50 [4]: 1300 nM
- IC50 [6]: ~500 nM
Structure (SMILES): C#Cc1cccc(Nc2ncnc3cc(OCCOC)c(NC(=O)c4ccc(F)c([N+](=O)[O-])c4)cc23)c1 [Reno647, 4-Fluoro-N-[4-(3-ethynyl-phenylamino)-7-(2-methoxy-ethoxy)-quinazolin-6-yl]-3-nitro-benzamide]
- p21 expression [3]: significant induction
- dose reduction in combination ([5]; Reno647:Carboplatin 1:50): > 10 fold
- median effects, two drugs combined ([5]; Reno647:Carboplatin 1:50, concurrent, cell line not stated): 0.067 µM
- median effects, drug alone ([5]; single agent, cell line not stated): 0.697 µM
